Where two headings read alike, the source gives them in different places.
What was measured:
C. lagenarium = test: Spore germination assay, fungicidal activity against C. lagenarium; assay type: cell-based, Colletotrichum lagenarium
Method: (§1) The fungal pathogens C. lagenarium and B. cinerea was provided by the Agricultural Culture Collection of China (Yangling, Shaanxi, China). C. lagenarium was cultured for 2 weeks at 25 ± 1 °C on potato dextrose agar (PDA) while B. cinerea was cultured at 20 °C on the same medium after being retrieved from the storage tube. Plates were flooded with sterile distilled water, and then conidia were scraped with a glass rod. Mycelial debris was removed by filtration. The spores were harvested and suspended in sterile distilled water containing 0.1% (v/v) Tween 20. The concentration of the spore suspension was adjusted to 1.0 × 10^6 spores/mL with sterilized distilled water following.
(§2) The tested samples (10.0 mg) dissolved in acetone (0.1 mL) were diluted with sterile distilled water to prepare 10.0 mL stock solution, which was further diluted to prepare test solutions in which the final concentration of acetone was <1% (v/v). A series of concentrations of tested samples and one control (1% acetone with sterile distilled water) were separately tested for spore germination of C. lagenarium or B. cinerea. The samples were inoculated with spore suspension of C. lagenarium or B. cinerea containing 1.0 × 10^6 spores/mL. Aliquots of 10 μL of prepared spore suspension were placed on separate glass slides in triplicate. Slides containing the spores were incubated in a moisture chamber at 25 °C for 6~8 h. Each slide was then observed under the microscope for spore germination. Spores were considered to have germinated if the length of the germ tube was at least half the length of the spore. Afterward, spore germination was stopped by applying a drop of lactophenol-cotton blue to the inoculation sites on plates. The numbers of generated spores were counted under a microscope (Olympus BX61, Tokyo, Japan), and the percentage of germinated spores was calculated. Chlorothalonil was used as the positive control.

B. cinerea = test: Spore germination assay, fungicidal activity against B. cinerea; assay type: cell-based, Botrytis cinerea; conditions: in vitro, n = 3
Method: as §1, §2

[1] = Colletotrichum orbiculare, Table 1, from IC50 in μM, read-out: pIC50, C. lagenarium (converted)
[2] = Colletotrichum orbiculare, Table 2, fungicidal activity against C. lagenarium used for QSAR, read-out: pIC50 (converted)
[3] = Colletotrichum orbiculare, Table 4, experimental, C. lagenarium, read-out: Exp. pIC50 (converted)
[4] = Colletotrichum orbiculare, in vitro, spore germination, n = 3, read-out: IC50, C. lagenarium

Molecule | IC50 (C. lagenarium; [1]) | IC50 (C. lagenarium; [2]) | IC50 (C. lagenarium; [3]) | IC50 (C. lagenarium; [4]) | IC50 (B. cinerea; Botrytis cinerea) | melting point | pIC50, C. lagenarium (C. lagenarium; Table 1, from IC50 in μM) | pIC50 (C. lagenarium; Table 2, fungicidal activity against C. lagenarium used for QSAR) | Exp. pIC50 (C. lagenarium; Table 4, experimental, C. lagenarium) | IC50 (C. lagenarium; in vitro, spore germination, n = 3, read-out: IC50, C. lagenarium) | IC50 (B. cinerea)
C=C1CC(c2cccc(OC(=O)c3cccc(C)c3)c2)OC1=O (stereo not shown) [Compound 6h, 4-[3-(3-Methylbenzoyloxy)phenyl]-2-methylenebutyrolactone] | 126 µM | 126 µM | 126 µM | 126 µM | 148 µM | 177.6 to 178.2 °C | – | – | – | – | –
C=C1CC(c2ccccc2O)OC1=O (stereo not shown) [Compound 5, 4-(2-Hydroxyphenyl)-2-methylenebutyrolactone] | 239 µM | – | – | 239 µM | 280 µM | – | – | – | – | – | –
C=C1CC(c2cccc(OCCC)c2)OC1=O (stereo not shown) [Compound 6p, 4-(3-Propoxylphenyl)-2-methylenebutyrolactone] | 266 µM | 266 µM | 266 µM | 266 µM | 298 µM | – | – | – | – | – | –
C=C1CC(c2ccccc2OC(=O)c2ccc(Cl)cc2)OC1=O (stereo not shown) [Compound 5b, 4-[2-(4-Chlorobenzoyloxy)phenyl]-2-methylenebutyrolactone] | 17.7 µM | 17.7 µM | 17.7 µM | 17.7 µM | 34.5 µM | 208.7 to 209.3 °C | – | – | – | – | –
C=C1CC(c2ccccc2OC(=O)c2ccccc2C)OC1=O (stereo not shown) [Compound 5h, 4-[2-(2-Methylbenzoyloxy)phenyl]-2-methylenebutyrolactone] | 216 µM | 216 µM | 216 µM | 216 µM | 229 µM | 172.8 to 173.4 °C | – | – | – | – | –
C=C1CC(c2ccccc2OC(=O)c2ccc(C)cc2)OC1=O (stereo not shown) [Compound 5j, 4-[2-(4-Methylbenzoyloxy)phenyl]-2-methylenebutyrolactone] | 207 µM | 207 µM | 207 µM | 208 µM | 259 µM | 181.2 to 181.6 °C | – | – | – | – | –
C=C1CC(c2cccc(OC(=O)c3ccccc3OC)c2)OC1=O (stereo not shown) [Compound 6j, 4-[3-(2-Methoxylbenzoyloxy)phenyl]-2-methylenebutyrolactone] | 162 µM | 162 µM | 162 µM | 162 µM | 196 µM | 172.3 to 172.8 °C | – | – | – | – | –
C=C1CC(c2cccc(OC(=O)c3ccc(C)cc3)c2)OC1=O (stereo not shown) [Compound 6i, 4-[3-(4-Methylbenzoyloxy)phenyl]-2-methylenebutyrolactone] | 136 µM | 136 µM | 136 µM | 137 µM | 164 µM | 168.5 to 168.9 °C | – | – | – | – | –
C=C1CC(c2ccc(OC(=O)c3ccc(Br)cc3)cc2)OC1=O (stereo not shown) [Compound 4f, 4-[4-(4-Bromobenzoyloxy)phenyl]-2-methylenebutyrolactone] | 14.4 µM | 14.4 µM | 14.4 µM | 14.4 µM | 23 µM | 175.1 to 175.6 °C | – | – | – | – | –
C=C1CC(c2cccc(OC(=O)c3ccc(Cl)cc3)c2)OC1=O (stereo not shown) [Compound 6b, 4-[3-(4-Chlorobenzoyloxy)phenyl]-2-methylenebutyrolactone] | 9.25 µM | 9.25 µM | 9.25 µM | 9.24 µM | 29.1 µM | 209.8 to 210.5 °C | – | – | – | – | –
C=C1CC(c2ccc(OC(=O)C=Cc3ccccc3)cc2)OC1=O (stereo not shown) [Compound 4r, 4-[4-(Cinnamoyloxy)phenyl]-2-methylenebutyrolactone] | 44.5 µM | 44.5 µM | 44.5 µM | 44.5 µM | 56.3 µM | – | – | – | – | – | –
C=C1CC(c2cccc(OC(=O)c3cccc(OC)c3)c2)OC1=O (stereo not shown) [Compound 6k, 4-[3-(3-Methoxybenzoyloxy)phenyl]-2-methylenebutyrolactone] | 136 µM | 136 µM | 136 µM | 136 µM | 161 µM | 183.7 to 184.2 °C | – | – | – | – | –
N#Cc1c(Cl)c(Cl)c(Cl)c(C#N)c1Cl [Chlorothalonil, reference compound] | 4.21 µM | – | – | 4.21 µM | 8.31 µM | – | – | – | – | – | –
C=C1CC(c2ccc(OC(=O)c3ccccc3Cl)cc2)OC1=O (stereo not shown) [Compound 4a, 4-[4-(2-Chlorobenzoyloxy)phenyl]-2-methylenebutyrolactone] | 14 µM | 14 µM | 14 µM | 14 µM | 29.8 µM | 187.2 to 187.9 °C | – | – | – | – | –
4-[2-(Cinnamoyloxy)phenyl]-2-methylenebutyrolactone [Compound 5n] | – | – | – | – | – | – | −1.012 | −1.0120 | −1.0120 | 10.3 µM | 20.6 µM
C=C1CC(c2cccc(OC(=O)c3ccccc3Br)c2)OC1=O (stereo not shown) [Compound 6c, 4-[3-(2-Bromobenzoyloxy)phenyl]-2-methylenebutyrolactone] | 10.3 µM | 10.3 µM | 10.3 µM | 10.3 µM | 27.4 µM | 175.3 to 175.8 °C | – | – | – | – | –
C=C1CC(c2ccccc2OC(=O)c2ccccc2OC)OC1=O (stereo not shown) [Compound 5k, 4-[2-(2-Methoxylbenzoyloxy)phenyl]-2-methylenebutyrolactone] | 292 µM | 292 µM | 292 µM | 292 µM | 307 µM | 177.8 to 178.6 °C | – | – | – | – | –
C=C1CC(c2cccc(OC(=O)c3ccc(Br)cc3)c2)OC1=O (stereo not shown) [Compound 6e, 4-[3-(4-Bromobenzoyloxy)phenyl]-2-methylenebutyrolactone] | 9.71 µM | 9.71 µM | 9.71 µM | 9.7 µM | 27.2 µM | 168.6 to 169.4 °C | – | – | – | – | –
C=C1CC(c2ccccc2OC(C)C)OC1=O (stereo not shown) [Compound 5q, 4-(2-Isopropoxylphenyl)-2-methylenebutyrolactone] | 429 µM | 429 µM | 429 µM | 429 µM | 446 µM | – | – | – | – | – | –
C=C1CC(c2ccccc2OC(=O)c2ccc(C#N)cc2)OC1=O (stereo not shown) [Compound 5f] | 79.1 µM | 79.1 µM | 79.1 µM | 79.1 µM | 95 µM | – | – | – | – | – | –
C=C1CC(c2ccccc2OC(=O)c2ccccc2Br)OC1=O (stereo not shown) [Compound 5c, 4-[2-(2-Bromobenzoyloxy)phenyl]-2-methylenebutyrolactone] | 15.9 µM | 15.9 µM | 15.9 µM | 15.9 µM | 34.6 µM | 204.6 to 205.1 °C | – | – | – | – | –
C=C1CC(c2ccc(OC(=O)c3ccccc3OC)cc2)OC1=O (stereo not shown) [Compound 4m, 4-[4-(2-Methoxylbenzoyloxy)phenyl]-2-methylenebutyrolactone] | 239 µM | 239 µM | 239 µM | 239 µM | 243 µM | 179.8 to 180.4 °C | – | – | – | – | –
C=C1CC(c2ccc(OC(=O)c3ccc(C)cc3)cc2)OC1=O (stereo not shown) [Compound 4l, 4-[4-(4-Methylbenzoyloxy)phenyl]-2-methylenebutyrolactone] | 189 µM | 189 µM | 189 µM | 189 µM | 209 µM | 184.5 to 185.1 °C | – | – | – | – | –
C=C1CC(c2ccc(OC(=O)c3ccc(C#N)cc3)cc2)OC1=O (stereo not shown) [Compound 4h] | 65.6 µM | 65.6 µM | 65.6 µM | 65.6 µM | 77 µM | – | – | – | – | – | –
C=C1CC(c2ccccc2OC(=O)c2ccc(Br)cc2)OC1=O (stereo not shown) [Compound 5e, 4-[2-(4-Bromobenzoyloxy)phenyl]-2-methylenebutyrolactone] | 15.3 µM | 15.3 µM | 15.3 µM | 15.3 µM | 36.1 µM | 184.7 to 185.2 °C | – | – | – | – | –
C=C1CC(c2ccc(OC(=O)c3ccccc3Br)cc2)OC1=O (stereo not shown) [Compound 4d, 4-[4-(2-Bromobenzoyloxy)phenyl]-2-methylenebutyrolactone] | 15.6 µM | 15.6 µM | 15.6 µM | 15.6 µM | 24.1 µM | 174.5 to 174.9 °C | – | – | – | – | –
C=C1CC(c2cccc(OC(=O)CC)c2)OC1=O (stereo not shown) [Compound 6m, 4-(3-Propionyloxyphenyl)-2-methylenebutyrolactone] | 173 µM | 173 µM | 173 µM | 173 µM | 203 µM | – | – | – | – | – | –
C=C1CC(c2ccccc2OCCCC)OC1=O (stereo not shown) [Compound 5o, 4-(2-Butoxyphenyl)-2-methylenebutyrolactone] | 414 µM | 414 µM | 414 µM | 414 µM | 457 µM | – | – | – | – | – | –
